Where “and” joins values, the source holds several entries; their conditions need not be identical. Identical values can stand only once. Inconclusive results and toxic doses are left out. Cut-off read from the data, not from the text of the source: active = T/C of 150% or more; inactive = T/C below 125%.
Tested on: L1210 leukemia ip in BDF1 mice, survival T/C
Test: NCI In Vivo Anticancer Drug Screen. Data for tumor model L1210 Leukemia (intraperitoneal) in B6D2F1 (BDF1) mice
Details: endpoint: mean survival time, higher = longer survival
How it was run: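 Tumor was transplanted into mice, which were then dosed with test compound or vehicle alone. Survival was recorded for each group, and the treated figure was expressed relative to the control figure.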

[1] = dose: 100.0 mg/kg/injection, schedule: Q01DX009 (ip), vehicle: Klucel (hydroxypropylcellulose) (HPC)
[2] = dose: 100.0 mg/kg/injection, schedule: Q04DX003 (ip), vehicle: saline
[3] = dose: 200.0 mg/kg/injection, schedule: Q01DX009 (ip), vehicle: Klucel (hydroxypropylcellulose) (HPC)
[4] = dose: 200.0 mg/kg/injection, schedule: Q04DX003 (ip), vehicle: saline
[5] = dose: 400.0 mg/kg/injection, schedule: Q04DX003 (ip), vehicle: saline
[6] = dose: 50.0 mg/kg/injection, schedule: Q01DX001 (ip), vehicle: saline
[7] = dose: 100.0 mg/kg/injection, schedule: Q01DX001 (ip), vehicle: saline
[8] = dose: 200.0 mg/kg/injection, schedule: Q01DX001 (ip), vehicle: saline
[9] = dose: 400.0 mg/kg/injection, schedule: Q01DX001 (ip), vehicle: saline
[10] = dose: 100.0 mg/kg/injection, schedule: Q01DX009 (ip), vehicle: saline
[11] = dose: 200.0 mg/kg/injection, schedule: Q01DX009 (ip), vehicle: saline
[12] = dose: 400.0 mg/kg/injection, schedule: Q01DX009 (ip), vehicle: saline
[13] = dose: 100.0 mg/kg/injection, schedule: Q04DX003 (ip), vehicle: Klucel (hydroxypropylcellulose) (HPC)
[14] = dose: 200.0 mg/kg/injection, schedule: Q04DX003 (ip), vehicle: Klucel (hydroxypropylcellulose) (HPC)
[15] = dose: 400.0 mg/kg/injection, schedule: Q04DX003 (ip), vehicle: Klucel (hydroxypropylcellulose) (HPC)
[16] = dose: 25.0 mg/kg/injection, schedule: Q01DX001 (ip), vehicle: saline
[17] = dose: 25.0 mg/kg/injection, schedule: Q01DX009 (ip), vehicle: Klucel (hydroxypropylcellulose) (HPC)
[18] = dose: 50.0 mg/kg/injection, schedule: Q01DX009 (ip), vehicle: Klucel (hydroxypropylcellulose) (HPC)

Measured: T/C

O=C(Nc1ccccc1)OCC(Cl)(Cl)Cl
inactive: dose: 100.0 mg/kg/injection, schedule: Q01DX001 (ip), vehicle: saline sonified 105 % of control | [1] 100 % of control | [2] 91 % of control | dose: 200.0 mg/kg/injection, schedule: Q01DX001 (ip), vehicle: saline sonified 108 % of control | [3] 107 % of control | [4] 100 % of control | dose: 400.0 mg/kg/injection, schedule: Q01DX001 (ip), vehicle: saline sonified 103 % of control | dose: 400.0 mg/kg/injection, schedule: Q01DX009 (ip), vehicle: Klucel (hydroxypropylcellulose) (HPC) 100 % of control | [5] 96 % of control

C=CCC(O)c1ccccc1 (configuration not stated)
inactive: dose: 100.0 mg/kg/injection, schedule: Q04DX002 (ip), vehicle: saline 103 % of control | dose: 200.0 mg/kg/injection, schedule: Q04DX002 (ip), vehicle: saline 100 % of control | dose: 400.0 mg/kg/injection, schedule: Q04DX002 (ip), vehicle: saline 113 % of control

c1ccc(Cc2ccncc2)cc1
inactive: dose: 100.0 mg/kg/injection, schedule: Q01DX009 (ip), vehicle: saline with Tween-80 101 % of control | dose: 200.0 mg/kg/injection, schedule: Q01DX009 (ip), vehicle: saline with Tween-80 106 % of control

CSc1nc(C)c(Br)c(Sc2nc(N)nc3nc[nH]c23)n1
inactive: dose: 100.0 mg/kg/injection, schedule: Q01DX Z (ip), vehicle: methylcellulose (MC) 87 % of control

COc1c(-c2cc(C)nc(NC#N)n2)c(O)cc2occc12
inactive: dose: 100.0 mg/kg/injection, schedule: Q04DX002 (ip), vehicle: Klucel (hydroxypropylcellulose) (HPC) 95 % of control | dose: 200.0 mg/kg/injection, schedule: Q04DX002 (ip), vehicle: Klucel (hydroxypropylcellulose) (HPC) 95 % of control | dose: 400.0 mg/kg/injection, schedule: Q04DX002 (ip), vehicle: Klucel (hydroxypropylcellulose) (HPC) 98 % of control

CCCCCCCCCCCCCCC[As](=O)(O)CCCCCCCCCCCCCCC
inactive: [6] 97 % of control | [7] 95 % of control | [8] 95 % of control | [9] 95 % of control

CCNC(=S)Nc1ccccc1
inactive: dose: 37.5 mg/kg/injection, schedule: Q01DX009 (ip), vehicle: Klucel (hydroxypropylcellulose) (HPC) 102 % of control | dose: 75.0 mg/kg/injection, schedule: Q01DX009 (ip), vehicle: Klucel (hydroxypropylcellulose) (HPC) 104 % of control | dose: 150.0 mg/kg/injection, schedule: Q01DX009 (ip), vehicle: Klucel (hydroxypropylcellulose) (HPC) 115 % of control

COc1ccccc1-n1c(O)c(N=Nc2ccc(C)cc2)c(=O)n(-c2ccc(Cl)cc2)c1=S
inactive: dose: 100.0 mg/kg/injection, schedule: Q01DX001 (ip), vehicle: Klucel (hydroxypropylcellulose) (HPC) 106 % of control | dose: 200.0 mg/kg/injection, schedule: Q01DX001 (ip), vehicle: Klucel (hydroxypropylcellulose) (HPC) 100 % of control

O=C1OC(=O)C2C1C1c3ccccc3C13c1ccccc1C23 (configuration not stated)
inactive: [7] 92 % of control | [10] 110 % of control | [8] 94 % of control | [11] 100 % of control | [9] 97 % of control | [12] 89 % of control

O=C1c2cccc3cccc(c23)C(=O)N1Cc1ccccc1
inactive: [7] 95 % of control | [8] 103 % of control | [9] 91 % of control

CN/N=C\c1cc2ccccc2c2ccccc12
inactive: dose: 50.0 mg/kg/injection, schedule: Q01DX001 (ip), vehicle: alcohol 89 % of control | dose: 100.0 mg/kg/injection, schedule: Q01DX001 (ip), vehicle: alcohol 89 % of control | dose: 200.0 mg/kg/injection, schedule: Q01DX001 (ip), vehicle: alcohol 100 % of control | dose: 400.0 mg/kg/injection, schedule: Q01DX001 (ip), vehicle: alcohol 89 % of control

Oc1ccc2ccccc2c1-c1c(O)ccc2ccccc12
inactive: dose: 12.5 mg/kg/injection, schedule: Q01DX Z (ip), vehicle: other 106 % of control | dose: 25.0 mg/kg/injection, schedule: Q01DX Z (ip), vehicle: other 103 % of control | dose: 50.0 mg/kg/injection, schedule: Q01DX Z (ip), vehicle: other 106 % of control | [1] 97 % of control | dose: 100.0 mg/kg/injection, schedule: Q01DX Z (ip), vehicle: other 116 % of control | [13] 111 % of control | [3] 94 % of control | [14] 94 % of control | [15] 103 % of control

C=C1CC[N+]2(CC(=O)c3ccc(Br)cc3)CCCC12 (configuration not stated)
inactive: dose: 12.5 mg/kg/injection, schedule: Q01DX001 (ip), vehicle: saline 92 % of control | [16] 92 % of control | [6] 101 % of control

O=S(=O)(O)c1cc(O)c(S(=O)(=O)O)cc1O
inactive: [2] 98 % of control | [4] 92 % of control | [5] 110 % of control

CN=C(NC)c1ccc(NC(=O)/C=C\c2ccc(/C=C/C(=O)Nc3ccc(C(=NC)NC)cc3)cc2)cc1
inactive: dose: 7.5 mg/kg/injection, schedule: Q01DX Z (oral), vehicle: saline 95 % of control | dose: 15.0 mg/kg/injection, schedule: Q01DX Z (oral), vehicle: saline 91 % of control | dose: 30.0 mg/kg/injection, schedule: Q01DX Z (oral), vehicle: saline 95 % of control | dose: 60.0 mg/kg/injection, schedule: Q01DX Z (oral), vehicle: saline 103 % of control

CCCCCCCNC(C)=O
inactive: [16] 99 % of control | dose: 25.0 mg/kg/injection, schedule: Q01DX009 (ip), vehicle: saline 106 % of control | [6] 116 % of control | dose: 50.0 mg/kg/injection, schedule: Q01DX009 (ip), vehicle: saline 95 % of control | dose: 100.0 mg/kg/injection, schedule: Q01DX001 (ip), vehicle: saline with Tween-80 92 % of control | [7] 99 % of control

Cn1cc(/C=C/C(N)=O)c2nccnc21
inactive: dose: 1.56 mg/kg/injection, schedule: Q01DX009 (ip), vehicle: water 94 % of control | dose: 3.12 mg/kg/injection, schedule: Q01DX009 (ip), vehicle: water 92 % of control | dose: 6.25 mg/kg/injection, schedule: Q01DX009 (ip), vehicle: water 107 % of control | dose: 12.5 mg/kg/injection, schedule: Q01DX009 (ip), vehicle: water 103 % of control | dose: 25.0 mg/kg/injection, schedule: Q01DX009 (ip), vehicle: water 100 % of control and 110 % of control

CC(=O)Nc1cc(Cl)ccc1Cl
inactive: [13] 102 % of control | [14] 88 % of control | [15] 102 % of control

CCOP(=O)(OCC)C1C(C)N1C(=O)Nc1ccccc1 (configuration not stated)
inactive: [17] 106 % of control | [18] 105 % of control | [1] 110 % of control | [13] 101 % of control | [14] 100 % of control | [15] 106 % of control

CC1=Nc2ccccc2/C1=C\c1c(C)[nH]c2ccccc12
inactive: [17] 97 % of control | [18] 97 % of control | dose: 50.0 mg/kg/injection, schedule: Q01DX009 (ip), vehicle: acetone 101 % of control | [7] 96 % of control | [1] 97 % of control | dose: 100.0 mg/kg/injection, schedule: Q04DX003 (ip), vehicle: acetone 96 % of control | [8] 101 % of control | [3] 97 % of control | dose: 200.0 mg/kg/injection, schedule: Q04DX003 (ip), vehicle: acetone 99 % of control | [9] 104 % of control

Nc1nc2ncnc(N)c2nc1-c1ccc(N(CCO)CCO)cc1
inactive: [7] 104 % of control | [8] 95 % of control | [9] 100 % of control

Nc1cccc(CNC(=O)COc2cccc(Cl)c2)c1
inactive: [18] 116 % of control | [1] 109 % of control | [13] 96 % of control | [3] 120 % of control | [14] 96 % of control | [15] 104 % of control

Cc1nccn1C
inactive: [7] 101 % of control | [8] 90 % of control | [9] 92 % of control

CCCCC(CC)COC(OCC(CC)CCCC)C(OCC(CC)CCCC)OCC(CC)CCCC (configuration not stated)
inactive: [10] 101 % of control | dose: 100.0 mg/kg/injection, schedule: Q04DX003 (ip), vehicle: saline with Tween-80 98 % of control | [11] 101 % of control | dose: 200.0 mg/kg/injection, schedule: Q04DX003 (ip), vehicle: saline with Tween-80 94 % of control | [12] 113 % of control | dose: 400.0 mg/kg/injection, schedule: Q04DX003 (ip), vehicle: saline with Tween-80 91 % of control
